Measured values published in BindingDB's records for PubMed 38436272 (Sorbonne University, 2024).

Biological target: Forkhead box protein O3 (Homo sapiens, UniProt O43524)
Assay: Induction of nuclear translocation of FOXO3 in human U2OS cells by inverted microscopic analysis

Sequence of Forkhead box protein O3 (O43524 whole entry): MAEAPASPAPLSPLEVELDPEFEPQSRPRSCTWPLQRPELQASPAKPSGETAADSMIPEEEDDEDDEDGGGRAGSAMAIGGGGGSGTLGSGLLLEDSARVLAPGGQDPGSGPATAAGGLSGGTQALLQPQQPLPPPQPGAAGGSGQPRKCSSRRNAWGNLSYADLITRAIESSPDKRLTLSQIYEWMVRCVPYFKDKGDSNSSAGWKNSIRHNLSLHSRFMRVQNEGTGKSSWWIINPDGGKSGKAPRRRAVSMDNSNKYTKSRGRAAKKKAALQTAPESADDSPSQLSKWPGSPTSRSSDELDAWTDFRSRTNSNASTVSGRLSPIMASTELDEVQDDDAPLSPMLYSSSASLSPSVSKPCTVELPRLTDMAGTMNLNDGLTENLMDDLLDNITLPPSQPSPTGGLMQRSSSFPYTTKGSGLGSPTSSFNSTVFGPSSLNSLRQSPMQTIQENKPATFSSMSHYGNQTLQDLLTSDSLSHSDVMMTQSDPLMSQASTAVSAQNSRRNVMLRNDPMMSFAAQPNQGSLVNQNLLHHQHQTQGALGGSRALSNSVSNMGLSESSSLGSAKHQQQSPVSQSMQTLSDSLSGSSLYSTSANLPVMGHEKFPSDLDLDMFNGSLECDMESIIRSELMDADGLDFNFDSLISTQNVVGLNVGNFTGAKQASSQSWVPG

COc1cc(/C=C/C(=O)N2CCC=CC2=O)cc(OC)c1OC [CHEBI:8241]
EC50: 37.7 µM
